# Experiments:
# Format in all cases: in vivo
# corn (Zea mays) [1] = test: Test G Post-Emergence Protocol; conditions: Zea mays, post-emergence, 312 h, read-out: Corn damage rating; for plant injury at 15.625 g/ha: 15.625 g ai/ha, evaluated after 13 days (100=total damage to plant; 0=no damage to plant); for plant injury at 62.5 g/ha: 62.5 g ai/ha; for plant injury at 62.5 g/ha / plant injury at 250 g/ha: evaluated after 13 days, 100=total damage to plant, 0=no damage to plant; for plant injury at 250 g/ha: 250 g ai/ha
# Procedure, shortened: (§1)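 Values are percent visual injury at 13 days after treatment (0 none, 100 total). Treatment was a post-emergence spray at 15.625, 62.5 or 250 g/ha on 8-day-old pot plants kept at 24/16 °C.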
# [2] = tested on: ivy-leaved morning glory (Ipomoea hederacea); test: Test G Post-Emergence Protocol; conditions: Ipomoea, post-emergence, 312 h, read-out: Morningglory, Ivy-leaved damage rating; for pest or weed control at 15.625 g/ha: 15.625 g ai/ha, evaluated after 13 days (100=total damage to plant; 0=no damage to plant); for pest or weed control at 62.5 g/ha: 62.5 g ai/ha; for pest or weed control at 62.5 g/ha / pest or weed control at 250 g/ha: evaluated after 13 days, 100=total damage to plant, 0=no damage to plant; for pest or weed control at 250 g/ha: 250 g ai/ha
# Procedure, shortened: as §1
# [3] = tested on: velvetleaf (Abutilon theophrasti); test: Test G Post-Emergence Protocol; conditions: Abutilon theophrasti, post-emergence, 312 h, read-out: Velvetleaf damage rating; for pest or weed control at 15.625 g/ha: 15.625 g ai/ha, evaluated after 13 days (100=total damage to plant; 0=no damage to plant); for pest or weed control at 62.5 g/ha: 62.5 g ai/ha; for pest or weed control at 62.5 g/ha / pest or weed control at 250 g/ha: evaluated after 13 days, 100=total damage to plant, 0=no damage to plant; for pest or weed control at 250 g/ha: 250 g ai/ha
# Procedure, shortened: as §1
# [4] = tested on: barnyardgrass (Echinochloa crus-galli); test: Test G Post-Emergence Protocol; conditions: Echinochloa crus-galli, post-emergence, 312 h, read-out: Barnyardgrass damage rating; for pest or weed control at 15.625 g/ha: 15.625 g ai/ha, evaluated after 13 days (100=total damage to plant; 0=no damage to plant); for pest or weed control at 62.5 g/ha: 62.5 g ai/ha; for pest or weed control at 62.5 g/ha / pest or weed control at 250 g/ha: evaluated after 13 days, 100=total damage to plant, 0=no damage to plant; for pest or weed control at 250 g/ha: 250 g ai/ha
# Procedure, shortened: as §1
# [5] = tested on: redroot pigweed (Amaranthus retroflexus); test: Test G Post-Emergence Protocol; conditions: Amaranthus retroflexus, post-emergence, 312 h, read-out: Pigweed, Redroot damage rating; for pest or weed control at 15.625 g/ha: 15.625 g ai/ha, evaluated after 13 days (100=total damage to plant; 0=no damage to plant); for pest or weed control at 62.5 g/ha: 62.5 g ai/ha; for pest or weed control at 62.5 g/ha / pest or weed control at 250 g/ha: evaluated after 13 days, 100=total damage to plant, 0=no damage to plant; for pest or weed control at 250 g/ha: 250 g ai/ha
# Procedure, shortened: as §1
# [6] = tested on: giant foxtail (Setaria faberi); test: Test G Post-Emergence Protocol; conditions: Setaria faberi, post-emergence, 312 h, read-out: Foxtail, Giant damage rating; for pest or weed control at 15.625 g/ha: 15.625 g ai/ha, evaluated after 13 days (100=total damage to plant; 0=no damage to plant); for pest or weed control at 62.5 g/ha: 62.5 g ai/ha
# Procedure, shortened: as §1
# corn (Zea mays) [7] = test: Test G Pre-Emergence Protocol; conditions: Zea mays, pre-emergence, 312 h, evaluated after 13 days; for plant injury at 15.625 g/ha: 15.625 g ai/ha; for plant injury at 15.625 g/ha / plant injury at 250 g/ha: read-out: Corn damage rating (100=total damage to plant; 0=no damage to plant); for plant injury at 62.5 g/ha: 62.5 g ai/ha, 100=total damage to plant, 0=no damage to plant, read-out: Corn damage rating; for plant injury at 250 g/ha: 250 g ai/ha
# Procedure, shortened: (§2)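 Herbicidal effect was rated 13 days post-application on a scale where 100 equals total damage. Spraying took place the day after sowing, using 15.625, 62.5 or 250 g/ha of compound in a 50:50 acetone/water solution with 0.5% Tween 20.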
# [8] = tested on: ivy-leaved morning glory (Ipomoea hederacea); test: Test G Pre-Emergence Protocol; conditions: Ipomoea, pre-emergence, 312 h, evaluated after 13 days; for pest or weed control at 15.625 g/ha: 15.625 g ai/ha; for pest or weed control at 15.625 g/ha / pest or weed control at 250 g/ha: read-out: Morningglory, Ivy-leaved damage rating (100=total damage to plant; 0=no damage to plant); for pest or weed control at 62.5 g/ha: 62.5 g ai/ha, 100=total damage to plant, 0=no damage to plant, read-out: Morningglory, Ivy-leaved damage rating; for pest or weed control at 250 g/ha: 250 g ai/ha
# Procedure, shortened: as §2
# [9] = tested on: velvetleaf (Abutilon theophrasti); test: Test G Pre-Emergence Protocol; conditions: Abutilon theophrasti, pre-emergence, 312 h, evaluated after 13 days; for pest or weed control at 15.625 g/ha: 15.625 g ai/ha; for pest or weed control at 15.625 g/ha / pest or weed control at 250 g/ha: read-out: Velvetleaf damage rating (100=total damage to plant; 0=no damage to plant); for pest or weed control at 62.5 g/ha: 62.5 g ai/ha, 100=total damage to plant, 0=no damage to plant, read-out: Velvetleaf damage rating; for pest or weed control at 250 g/ha: 250 g ai/ha
# Procedure, shortened: as §2
# [10] = tested on: barnyardgrass (Echinochloa crus-galli); test: Test G Pre-Emergence Protocol; conditions: Echinochloa crus-galli, pre-emergence, 312 h, evaluated after 13 days; for pest or weed control at 15.625 g/ha: 15.625 g ai/ha; for pest or weed control at 15.625 g/ha / pest or weed control at 250 g/ha: read-out: Barnyardgrass damage rating (100=total damage to plant; 0=no damage to plant); for pest or weed control at 62.5 g/ha: 62.5 g ai/ha, 100=total damage to plant, 0=no damage to plant, read-out: Barnyardgrass damage rating; for pest or weed control at 250 g/ha: 250 g ai/ha
# Procedure, shortened: as §2
# [11] = tested on: redroot pigweed (Amaranthus retroflexus); test: Test G Pre-Emergence Protocol; conditions: Amaranthus retroflexus, pre-emergence, 312 h, evaluated after 13 days; for pest or weed control at 15.625 g/ha: 15.625 g ai/ha; for pest or weed control at 15.625 g/ha / pest or weed control at 250 g/ha: read-out: Pigweed, Redroot damage rating (100=total damage to plant; 0=no damage to plant); for pest or weed control at 62.5 g/ha: 62.5 g ai/ha, 100=total damage to plant, 0=no damage to plant, read-out: Pigweed, Redroot damage rating; for pest or weed control at 250 g/ha: 250 g ai/ha
# Procedure, shortened: as §2
# [12] = tested on: giant foxtail (Setaria faberi); test: Test G Pre-Emergence Protocol; conditions: Setaria faberi, pre-emergence, 312 h, evaluated after 13 days; for pest or weed control at 15.625 g/ha: 15.625 g ai/ha; for pest or weed control at 15.625 g/ha / pest or weed control at 250 g/ha: read-out: Foxtail, Giant damage rating (100=total damage to plant; 0=no damage to plant); for pest or weed control at 62.5 g/ha: 62.5 g ai/ha, 100=total damage to plant, 0=no damage to plant, read-out: Foxtail, Giant damage rating; for pest or weed control at 250 g/ha: 250 g ai/ha
# Procedure, shortened: as §2
# [13] = evaluated after 13 days, 100=total damage to plant, 0=no damage to plant
SMILES,plant injury at 15.625 g/ha (corn (Zea mays) [1]) [%],plant injury at 62.5 g/ha (corn (Zea mays) [1]) [%],plant injury at 250 g/ha (corn (Zea mays) [1]) [%],pest or weed control at 15.625 g/ha [2] [%],pest or weed control at 62.5 g/ha [2] [%],pest or weed control at 250 g/ha [2] [%],pest or weed control at 15.625 g/ha [3] [%],pest or weed control at 62.5 g/ha [3] [%],pest or weed control at 250 g/ha [3] [%],pest or weed control at 15.625 g/ha [4] [%],pest or weed control at 62.5 g/ha [4] [%],pest or weed control at 250 g/ha [4] [%],pest or weed control at 15.625 g/ha [5] [%],pest or weed control at 62.5 g/ha [5] [%],pest or weed control at 250 g/ha [5] [%],pest or weed control at 15.625 g/ha [6] [%],"pest or weed control at 62.5 g/ha [6, 13] [%]",plant injury at 15.625 g/ha (corn (Zea mays) [7]) [%],plant injury at 62.5 g/ha (corn (Zea mays) [7]) [%],plant injury at 250 g/ha (corn (Zea mays) [7]) [%],further results
CN1C[C@H](c2ccc(C(F)(F)F)cc2)[C@@H](C(=O)Nc2cccc3c2S(=O)(=O)CC3)C1=O (racemic) [Compound 1737],0,0,0,0,0,0,0,0,0,0,0,0,0,0,0,0,0,0,0,0,"pest or weed control at 250 g/ha ([6]; 250 g ai/ha, evaluated after 13 days, 100=total damage to plant, 0=no damage to plant): 0%; pest or weed control at 15.625 g/ha [8]: 0%; pest or weed control at 62.5 g/ha [8]: 0%; pest or weed control at 250 g/ha [8]: 0%; pest or weed control at 15.625 g/ha [9]: 0%; pest or weed control at 62.5 g/ha [9]: 0%; pest or weed control at 250 g/ha [9]: 0%; pest or weed control at 15.625 g/ha [10]: 0%; pest or weed control at 62.5 g/ha [10]: 0%; pest or weed control at 250 g/ha [10]: 0%; pest or weed control at 15.625 g/ha [11]: 0%; pest or weed control at 62.5 g/ha [11]: 0%; pest or weed control at 250 g/ha [11]: 0%; pest or weed control at 15.625 g/ha [12]: 0%; pest or weed control at 62.5 g/ha [12]: 0%; pest or weed control at 250 g/ha [12]: 0%"
CN1C[C@H](c2ccc(F)c(F)c2)[C@@H](C(=O)Nc2cnccc2C(F)(F)F)C1=O (racemic) [Compound 1740],0,0,0,0,0,20,0,0,10,0,0,20,0,0,0,0,40,0,0,10,pest or weed control at 15.625 g/ha [8]: 0%; pest or weed control at 62.5 g/ha [8]: 0%; pest or weed control at 250 g/ha [8]: 0%; pest or weed control at 15.625 g/ha [9]: 0%; pest or weed control at 62.5 g/ha [9]: 0%; pest or weed control at 250 g/ha [9]: 50%; pest or weed control at 15.625 g/ha [10]: 0%; pest or weed control at 62.5 g/ha [10]: 30%; pest or weed control at 250 g/ha [10]: 40%; pest or weed control at 15.625 g/ha [11]: 0%; pest or weed control at 62.5 g/ha [11]: 0%; pest or weed control at 250 g/ha [11]: 40%; pest or weed control at 15.625 g/ha [12]: 0%; pest or weed control at 62.5 g/ha [12]: 60%; pest or weed control at 250 g/ha [12]: 90%

# Source: patent US12077503B2, “Substituted cyclic amides and their use as herbicides” (FMC CORPORATION, priority 2015, dated 2024)
